How the values were obtained:
Experiment in all cases: relative viability (cell count relative to DMSO-treated control) (fraction of DMSO control); higher = more viable cells / less drug effect
[1] = test system: C32
Experimental: (§1)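 BRAF V600E/D melanoma cell lines were seeded in 96-well plates, treated in 4 replicates with seven doses (3.16 nM to 3.16 uM) of RAF/MEK inhibitors for 24, 48 or 72 h, and stained with Hoechst 33342 (nuclei) and DEVD-NucView488 caspase-3 substrate. Plates were imaged on an Operetta. Relative viability is the cell count normalised to a DMSO-treated control; apoptosis fraction is the fraction of NucView488-positive nuclei.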

[2] = test system: COLO858
Experimental: as §1

[3] = test system: LOXIMVI; conditions: 24 h
Experimental: as §1

[4] = test system: MMACSF
Experimental: as §1

[5] = test system: RVH421
Experimental: as §1

[6] = test system: SKMEL28
Experimental: as §1

[7] = test system: WM115
Experimental: as §1

CN(C)CCOc1ccc(-c2nc(-c3ccncc3)c(-c3ccc4c(c3)CC/C4=N\O)[nH]2)cc1
relative viability
Conditions	0.00316 µM	0.01 µM	0.0316 µM	0.1 µM	0.316 µM	1 µM	3.16 µM
[1], 24 h	1.07	1.05	1.09	1.05	0.971	0.842	0.779
[1], 48 h	1.2	1.04	1.03	1.06	0.858	0.551	0.4
[1], 72 h	1.1	1.19	1.08	0.762	0.436	0.276	0.209
[2], 24 h	0.866	1.21	1.2	1	0.946	0.883	0.811
[2], 48 h	0.963	1.03	0.929	0.584	0.431	0.341	0.277
[2], 72 h	1.07	1.21	0.906	0.605	0.494	0.381	0.29
[4], 24 h	1.03	0.999	0.9993	1.03	0.964	0.977	1.02
[4], 48 h	0.955	1.01	0.925	0.787	0.791	0.727	0.684
[4], 72 h	0.953	0.952	0.779	0.6	0.529	0.423	0.341
[5], 24 h	0.994	0.9379	1.04	1.034	1.01	1.02	0.929
[5], 48 h	1.07	0.849	0.803	0.689	0.672	0.638	0.513
[5], 72 h	0.983	0.995	0.872	0.702	0.641	0.575	0.542
[6], 48 h	0.835	1.45	1.59	1.29	1.1	0.906	0.643
[6], 72 h	1.08	0.92	0.897	0.734	0.542	0.544	0.373
[7], 24 h	1.06	1.33	1.36	1.4	1.35	1.15	1.28
[7], 48 h	1.31	1.47	1.54	1.44	1.42	0.972	0.683
[7], 72 h	1.03	1.02	0.889	0.773	0.683	0.584	0.573

[3]
Conditions	relative viability
0.00316 µM	0.935
0.01 µM	1.01
0.0316 µM	1.02
0.1 µM	0.997
0.316 µM	1.02
1 µM	0.987
3.16 µM	0.903

CCCS(=O)(=O)Nc1ccc(F)c(C(=O)c2c[nH]c3ncc(Cl)cc23)c1F [PLX4720]
relative viability
Conditions	0.00316 µM	0.01 µM	0.0316 µM	0.1 µM	0.316 µM	1 µM	3.16 µM
[1], 24 h	0.98	1	1.04	1.01	0.942	0.824	0.693
[1], 48 h	1.11	0.905	0.929	1.01	0.857	0.454	0.155
[1], 72 h	0.957	1.08	1.1	0.937	0.516	0.182	0.0669
[2], 24 h	1.03	1.15	1.21	1.17	1.02	0.946	0.808
[2], 48 h	0.968	1.07	1.06	0.893	0.538	0.407	0.306
[2], 72 h	1.13	1.2	1.19	0.893	0.569	0.417	0.273
[4], 24 h	1.02	0.9436	0.974	1.04	0.991	1.02	1.06
[4], 48 h	0.92	1.02	1.01	1.01	0.854	0.764	0.679
[4], 72 h	0.937	0.923	0.86	0.632	0.531	0.336	0.146
[5], 24 h	0.932	1.01	0.9915	1.05	1.054	0.981	0.909
[5], 48 h	1.03	0.881	0.948	0.939	0.732	0.673	0.541
[5], 72 h	0.978	1.03	1.01	0.89	0.678	0.569	0.483
[6], 48 h	0.824	1.43	1.48	1.42	1.12	0.941	0.61
[6], 72 h	0.973	0.881	0.968	0.866	0.598	0.458	0.389
[7], 24 h	1.14	1.39	1.49	1.44	1.58	1.02	1.14
[7], 48 h	1.25	1.37	1.32	1.83	1.67	1.24	0.792
[7], 72 h	1.01	1.03	1.03	1.06	0.8596	0.594	0.302

[3]
Conditions	relative viability
0.00316 µM	0.917
0.01 µM	0.969
0.0316 µM	1.03
0.1 µM	1.1
0.316 µM	1.05
1 µM	1.04
3.16 µM	0.913

CCCS(=O)(=O)Nc1ccc(F)c(C(=O)c2c[nH]c3ncc(-c4ccc(Cl)cc4)cc23)c1F [Vemurafenib]
relative viability
Conditions	0.00316 µM	0.01 µM	0.0316 µM	0.1 µM	0.316 µM	1 µM	3.16 µM
[1], 24 h	0.987	0.995	1.03	0.985	0.997	0.927	0.637
[1], 48 h	1.07	0.901	0.891	0.96	0.988	0.551	0.102
[1], 72 h	1.04	1.07	1.02	0.875	0.684	0.162	0.0274
[2], 24 h	0.782	1.02	1.05	0.988	0.916	0.824	0.703
[2], 48 h	0.926	1.02	1	0.933	0.574	0.362	0.215
[2], 72 h	1.21	1.18	1.31	1.15	0.68	0.393	0.127
[4], 24 h	0.923	0.887	0.976	1	0.89	0.9218	0.905
[4], 48 h	0.908	0.923	0.962	1	0.85	0.713	0.604
[4], 72 h	0.957	0.941	0.939	0.697	0.56	0.29	0.0882
[5], 24 h	0.8497	0.936	0.993	1	1.07	1.04	0.823
[5], 48 h	1.02	0.907	0.932	0.887	0.778	0.684	0.503
[5], 72 h	0.957	1.02	0.959	0.909	0.674	0.539	0.452
[6], 48 h	0.828	1.18	1.18	1.07	0.973	0.71	0.542
[6], 72 h	0.955	0.88	0.947	0.922	0.651	0.491	0.39
[7], 24 h	1.17	1.2	1.22	1.18	1.17	1.22	1.24
[7], 48 h	1.04	1.24	1.24	1.45	1.73	1.31	0.884
[7], 72 h	0.953	1.04	1.05	1.07	0.855	0.571	0.27

[3]
Conditions	relative viability
0.00316 µM	0.969
0.01 µM	0.94
0.0316 µM	0.959
0.1 µM	0.96
0.316 µM	0.953
1 µM	0.95
3.16 µM	0.805

Cn1cnc2c(F)c(Nc3ccc(Br)cc3Cl)c(C(=O)NOCCO)cc21 [Selumetinib]
relative viability
Conditions	0.00316 µM	0.01 µM	0.0316 µM	0.1 µM	0.316 µM	1 µM	3.16 µM
[1], 24 h	1.02	1.02	1	0.891	0.938	0.861	0.811
[1], 48 h	1.24	1.09	1.15	0.959	0.71	0.322	0.127
[1], 72 h	0.891	0.998	0.952	0.698	0.347	0.112	0.0615
[2], 24 h	0.844	1.09	1.24	1.12	1.01	0.937	0.856
[2], 48 h	0.983	1.05	1.06	0.702	0.455	0.374	0.315
[2], 72 h	0.974	1.05	0.843	0.545	0.427	0.342	0.28
[4], 24 h	1.11	1.02	1.022	1.05	0.989	1.04	1.06
[4], 48 h	0.907	1.01	0.88	0.743	0.748	0.664	0.533
[4], 72 h	0.924	0.759	0.563	0.449	0.344	0.21	0.141
[5], 24 h	0.975	0.995	1.032	1.03	1.09	1.02	0.919
[5], 48 h	1.04	0.884	0.795	0.721	0.659	0.658	0.593
[5], 72 h	1.01	0.988	0.849	0.657	0.566	0.511	0.488
[6], 48 h	0.799	1.31	1.43	1.12	0.964	0.852	0.604
[6], 72 h	1.06	0.975	0.804	0.543	0.449	0.419	0.337
[7], 24 h	1.06	1.27	1.36	1.27	1.46	0.89	0.728
[7], 48 h	1.02	1.39	1.37	1.48	1.24	0.823	0.592
[7], 72 h	1.03	1.07	0.918	0.751	0.587	0.409	0.287

[3]
Conditions	relative viability
0.00316 µM	0.937
0.01 µM	0.976
0.0316 µM	1.02
0.1 µM	1.07
0.316 µM	0.98
1 µM	1
3.16 µM	0.913

Cc1ccc(NC(=O)c2cccc(C(C)(C)C#N)c2)cc1Nc1ccc2ncn(C)c(=O)c2c1 [AZ628]
relative viability
Conditions	0.00316 µM	0.01 µM	0.0316 µM	0.1 µM	0.316 µM	1 µM	3.16 µM
[1], 24 h	1.09	1.12	1.05	1.02	0.87	0.757	0.877
[1], 48 h	1.17	1.14	1.01	0.793	0.428	0.109	0.0749
[1], 72 h	0.992	1.1	0.947	0.45	0.163	0.059	0.0269
[2], 24 h	0.923	1.12	1.16	0.982	0.938	0.902	0.816
[2], 48 h	0.965	1.08	0.778	0.48	0.368	0.319	0.248
[2], 72 h	1.05	1.13	0.716	0.475	0.392	0.307	0.213
[4], 24 h	1.059	0.978	1	0.982	0.988	1	1.034
[4], 48 h	0.938	1.02	0.913	0.771	0.737	0.56	0.517
[4], 72 h	0.917	0.833	0.641	0.519	0.367	0.223	0.141
[5], 24 h	0.929	0.9636	1.05	1.06	1.02	0.993	0.908
[5], 48 h	1.06	0.944	0.81	0.666	0.696	0.65	0.544
[5], 72 h	0.956	0.915	0.741	0.58	0.537	0.47	0.412
[6], 48 h	0.879	1.4	1.44	1.16	0.947	0.896	0.614
[6], 72 h	1.13	1.01	0.791	0.526	0.507	0.489	0.442
[7], 24 h	1.19	1.47	1.51	1.53	1.37	0.87	0.946
[7], 48 h	1.06	1.19	1.47	1.31	1.11	0.658	0.424
[7], 72 h	1.03	1.04	0.801	0.594	0.281	0.172	0.0874

[3]
Conditions	relative viability
0.00316 µM	0.963
0.01 µM	0.949
0.0316 µM	0.956
0.1 µM	0.942
0.316 µM	0.86
1 µM	0.862
3.16 µM	0.822

Source: the supplement of paper PMC4380931
